pIC50: −log10 of the molar value. Read-outs that look alike come from different tables or passages of the source.

The test system of one assay is U-87 MG. In words: Cytotoxicity assay (resazurin) in U-87 MG cell line. It counts as cell-based. The following applies: Homo sapiens, read-out: U-87 MG IC50. As for the experimental part: (§1) A427 (HTB-53; ATCC), a lung epithelial cell line, was seeded in medium (MEM, 41090101; Gibco) at a cell count of 1500 cells per 100 μL per well in a 96 well edge plate (167425; ThermoFisher). Cells were allowed to grow at 37° C. for 24 hr in 5% CO2 environment (culture conditions) in a Nuaire incubator (humidified). Serially diluted test compounds (100 μL) within the desired testing concentration ranges were added to the culture plate and the cells further incubated in culture conditions for 72 hr. The experiment was terminated at the designated incubation time by replacing the medium with 100 μL of 1 mM of resazurin (R7017; Sigma) prepared in culture medium, and the plates were further incubated in culture conditions for 4-6 hr. Fluorescence was recorded using a multimodal plate reader (Biotek Synergy Neo) at an excitation wavelength of 535 nm and emission wavelength of 590 nm to obtain relative fluorescence units. Data were analysed as follows: the background fluorescence (blank containing only medium) value was subtracted from each reading and normalized with the vehicle control (DMSO treated cells) to obtain percent survival/proliferation. […] Potency of compounds in other cell lines (such as A549, As-Pc-1, Panc 10.05, A172, U-87 MG) may be determined in an analogous manner.

In the next assay the test system is As-Pc-1. Nature of the assay: Cytotoxicity assay (resazurin) in As-Pc-1 cell line. It counts as cell-based. The following applies: Homo sapiens, read-out: As-Pc-1 IC50. The method, then: as §1
For a further assay, the target named is T1, WEE1 kinase enzyme (Homo sapiens, UniProt P30291).
T1 construct: purchased Invitrogen, Life Technologies, Grand Island, N.Y. PR7373A
Nature of the assay: WEE1 IC50 determination, LanthaScreen Terbium Labeled TR-FRET kinase assay. It counts as biochemical. The following applies: WEE1 enzyme 1 nM, ATP 10 μM, 1 h. The method, then: IC50 values of compounds against WEE1 kinase enzyme were determined by LanthaScreen™ Terbium Labeled TR-FRET assay. Kinase assays were performed in 1× kinase buffer (#PV6135, Invitrogen, Life Technologies, Grand Island, N.Y.) where total reaction volume is 10 μL in low-volume 384-well plates (#4511, Corning). Serially diluted compounds (3-fold) were incubated with WEE1 Enzyme (1 nM) (#PR7373A, Invitrogen, Life Technologies, Grand Island, N.Y.) for 10 min; a mixture of ATP (10 μM) (#A1852, Sigma, St. Louis, Mo.) and fluorescent-PolyGT substrate (200 nM) (#PV3610, Invitrogen, Life Technologies, Grand Island, N.Y.) was added and incubated in dark at room temperature for 1 h. After 1 h, 10 μL stop solution containing terbium labeled antibody (4 nM) (#PV3529, Invitrogen, Life Technologies, Grand Island, N.Y.) and EDTA (#E5134, Sigma, St. Louis, Mo.) (20 mM) in TR-FRET dilution buffer (#PV3574, Invitrogen, Life Technologies, Grand Island, N.Y.) was added. Readings were taken in a Synergy Neo plate reader (BioTek, Winooski, Vt.) at single excitation of 340 nm and dual emission at 495 nm and 520 nm respectively.
The % activity of test samples was calculated as (Sample−Min)*100/(Max−Min). [Max: DMSO control, complete reaction with enzyme & DMSO and Min: No enzyme & DMSO]. […]

T1 sequence (P30291 whole entry): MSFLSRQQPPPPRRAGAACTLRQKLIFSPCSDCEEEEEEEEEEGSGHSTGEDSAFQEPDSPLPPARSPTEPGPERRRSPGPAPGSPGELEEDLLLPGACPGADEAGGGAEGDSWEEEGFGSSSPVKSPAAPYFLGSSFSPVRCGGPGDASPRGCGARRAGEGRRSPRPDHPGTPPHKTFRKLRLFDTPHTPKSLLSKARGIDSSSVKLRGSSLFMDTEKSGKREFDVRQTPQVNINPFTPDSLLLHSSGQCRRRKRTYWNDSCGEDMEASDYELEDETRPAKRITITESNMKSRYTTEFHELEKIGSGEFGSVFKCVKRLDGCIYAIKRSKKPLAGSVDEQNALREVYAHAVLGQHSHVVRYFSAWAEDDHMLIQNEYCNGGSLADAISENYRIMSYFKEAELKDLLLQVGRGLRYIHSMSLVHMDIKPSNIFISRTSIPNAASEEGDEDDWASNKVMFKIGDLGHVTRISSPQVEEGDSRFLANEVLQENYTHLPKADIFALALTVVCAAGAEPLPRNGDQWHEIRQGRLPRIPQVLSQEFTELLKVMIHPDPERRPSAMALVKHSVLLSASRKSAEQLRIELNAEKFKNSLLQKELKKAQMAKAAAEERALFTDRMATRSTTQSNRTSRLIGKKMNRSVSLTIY

For `CC1Oc2nc(Nc3ccc4c(c3)CCNC4(C)C)ncc2C(=O)N1c1c(Cl)cccc1Cl` (stereo not drawn) [1.4, 3-(2,6-dichlorophenyl)-7-((1,1-dimethyl-1,2,3,4-tetrahydroisoquinolin-6-yl)amino)-2-methyl-2,3-dihydro-4H-pyrimido[5,4-e][1,3]oxazin-4-one], the pIC50 in the assay on U-87 MG (U-87 MG cells, 72 hr incubation, inhibition of proliferation) is 4.96; with As-Pc-1 (ASPC1, As-Pc-1 cells, 72 hr incubation, inhibition of proliferation), 5.07; at WEE1 kinase enzyme it was 6.90.

Take `CC1Oc2nc(Nc3ccc4c(c3)CNCC4)ncc2C(=O)N1c1c(Cl)cccc1Cl` (stereo not drawn) [1.44, 3-(2,6-dichlorophenyl)-2-methyl-7-((1,2,3,4-tetrahydroisoquinolin-7-yl)amino)-2,3-dihydro-4H-pyrimido[5,4-e][1,3]oxazin-4-one]: the pIC50 was 4.94 in the assay on U-87 MG (U-87 MG, 72 h); 4.71 in the assay with As-Pc-1 (ASPC1, 72 h); 6.88 at WEE1 kinase enzyme.

Source of the values: patent US20220162229A1, “HETEROCYCLIC COMPOUNDS AND USES THEREOF” (Nuvation Bio Inc., priority 2019, published 2022).
